Data reported in patent US20220273754A1, “SS-31 FOR THE PREVENTION AND/OR TREATMENT OF ANEURYSM” (FUNDACIÓ INSTITUT DE RECERCA DE L'HOSPITAL DE LA SANTA CREU …, priority 2019, published 2022).
Non-standard residues stand in square brackets, D forms with d. No end group written: not given here.

Legend:
[1] = system: myocardial contractile force during ischemia-reperfusion; conditions: SS-20 given after ischemia; cited from earlier work
[2] = system: diabetic rats; conditions: cited from earlier work; for body weight: diabetic rats; for lipid metabolism: rat, in vivo
[3] = system: renal mitochondrial respiration; conditions: after ischemia; cited from earlier work
[4] = system: ApoE−/− mice infused with Ang II; assay: Survival of Ang II-infused ApoE−/− mice; assay type: in vivo; conditions: 3 mg/kg/day with Ang II 1000 ng/kg/min by osmotic minipump, 28 days
Procedure: (§1) The studies were developed in ApoE^−/− mice bred in the facility. The animals were infused with Ang II dissolved in saline (1000 ng/kg/min) by means of osmotic minipumps (model 1004, Alzet) implanted subcutaneously in the interscapular space of the mice previous anesthesia with isoflurane. The procedure lasted approximately 15 minutes per animal. Immediately after surgery, antibiotics (penicillin, 22,000 u/Kg, i.m.) and analgesics (buprenorphine 0.05 mg/Kg, i.m.) were administered to prevent infections and limit discomfort in the animals. Further, mice were kept on a heating pad until they woke up after surgery and were carefully monitored during the post-surgery period.
(§2) A group of mice infused with Ang II were treated with SS-31 in the form of chloride and dissolved in saline (3 mg/kg/day). Another group of animals infused with Ang II were treated with the SS-20 peptide also in the form of chloride, dissolved in saline and at the same dose. Both were administered together with Ang II by osmotic mini pump during the whole study (28 days). The control group consisted of ApoE^−/− mice infused with saline.

[5] = system: MMP9; assay: MMP9 mRNA by real-time PCR in abdominal aorta of Ang II-infused ApoE−/− mice; assay type: in vivo; conditions: 3 mg/kg/day with Ang II 1000 ng/kg/min, 28 days; normalized to GAPDH
Procedure: as §1
as §2, with “saline. […]” for “saline.”
(§3) The expression levels (mRNA) of the metalloproteinases MMP2 and MMP9 in the abdominal aortas of the different study groups were also analyzed. […]

[6] = system: angiotensin II (AngII)-induced cardiac hypertrophy; conditions: in vivo; cited from earlier work
[7] = system: mitochondrial swelling and cytochrome c release; conditions: cited from earlier work
[8] = system: reactive oxygen species (ROS) production and lipid peroxidation; conditions: direct inhibition; cited from earlier work
[9] = system: abdominal aorta of ApoE−/− mice infused with Ang II; assay: Histology (Masson's trichrome, orcein) of abdominal aorta of Ang II-infused ApoE−/− mice; assay type: in vivo; conditions: 3 mg/kg/day with Ang II 1000 ng/kg/min, 28 days
Procedure: as §1, §2
(§4) After 4 weeks, the animals were euthanized under intraperitoneal terminal anesthesia with a mixture of medetomidine (1 mg/kg) and ketamine (75 mg/kg) in saline (final volume of 200 μl), the aortas were collected immediately, examined to determine the presence of aneurysms and fixed in paraformaldehyde or frozen in liquid nitrogen for subsequent RNA extraction.

[10] = system: ApoE−/− mice infused with Ang II; assay: Aortic diameter and aneurysm incidence by ultrasonography in Ang II-infused ApoE−/− mice; assay type: in vivo; conditions: 28 days; for aortic diameter: 3 mg/kg/day with Ang II 1000 ng/kg/min by osmotic minipump, ultrasonography and macroscopic visualization; for incidence of AAA: 3 mg/kg/day with Ang II 1000 ng/kg/min, aneurysmal = external diameter >= 1.5 mm
Procedure: as §1, §2
The diameter of the aorta was evaluated weekly by abdominal echography using an ultrasound equipment (Vevo2100 Imaging systems; Visualsonics) with a 30 MHz transducer. The mice were anesthetized by inhalation of 1.5% isofluorane and secured in supine position on a thermal platform. After shaving the precord region, the transducer was applied to the abdominal wall to measure the abdominal aorta. Those abdominal aortas with external diameters greater than or equal to 1.5 mm were considered aneurysmal. All measurements were made from the captured images using the analysis software provided by Visualsonics.
as §4

[11] = system: mitochondrial permeability transition; conditions: cited from earlier work
[12] = system: humans and rodents maintained on a high fat diet; conditions: cited from earlier work
[13] = system: MMP2; assay: MMP2 mRNA by real-time PCR in abdominal aorta of Ang II-infused ApoE−/− mice; assay type: in vivo; conditions: 3 mg/kg/day with Ang II 1000 ng/kg/min, 28 days; normalized to GAPDH
Procedure: as §1
as §2, with “saline. […]” for “saline.”
as §3

Substance | protection of myocardial contractile force [1] | body weight [2] | lipid metabolism [2] | renal mitochondrial respiration [3] | survival rate [4] | aortic MMP9 expression (mRNA) [5] | AngII-induced cardiac hypertrophy, fibrosis and diastolic dysfunction [6] | mitochondrial swelling and cytochrome c release [7] | ROS production and lipid peroxidation [8] | disorganization and rupture of elastic fibers (orcein staining) [9] | vascular remodeling: collagen deposition (Masson's trichrome) [9] | aortic diameter [10] | incidence of AAA [10] | mitochondrial permeability transition [11] | insulin resistance [12] | aortic MMP2 expression (mRNA) [13]
D-Arg-2′,6′-dimethyltyrosine-Lys-Phe-NH2 [SS-31] | protects myocardial contractile force | useful in reducing body weight | beneficial effects on lipid metabolism | significantly improved renal mitochondrial respiration | significantly improved the survival rate | attenuated this effect | ameliorates | inhibits mitochondrial swelling and cytochrome c release | directly inhibit reactive oxygen species (ROS) production and lipid peroxidation | limited the disorganization and rupture of elastic fibers | attenuated by treatment with SS-31 | reduced the increase in aortic diameter significantly | significantly decreased the incidence of AAA | inhibits mitochondrial permeability transition | attenuates insulin resistance | attenuated this effect
F[dR]FK-NH2 [SS-20] | offered no protection | useful in reducing body weight | beneficial effects on lipid metabolism | significantly improved renal mitochondrial respiration | did not modify the survival rate | did not modify the increase in the mRNA level | – | – | only SS-31 was demonstrated to directly inhibit | not observed in animals treated with SS-20 | not by treatment with SS-20 | could not attenuate this increase in the aortic diameter | did not alter the aortic diameter nor the incidence of aneurysms | inhibits mitochondrial permeability transition | – | did not modify the increase in the mRNA level
